We go through 2 compounds from paper PMC8947439, “Antimicrobial Properties of a Peptide Derived from the Male Fertility Factor kl2 Protein of Drosophila melanogaster” (Current Issues in Molecular Biology, 2022).

Residues, ends and D or L forms follow the SMILES beside them.

What is called MIC is the smallest concentration in the dilution series that meets the test's criterion for growth inhibition.

Test [1] deals with E. coli HB101. In kind it is cell-based, Escherichia coli. Conditions: HB101, 2 h. Here is the method:
(§1) Bacteria were grown in brain heart infusion (BHI) medium broth at 37 °C. For the microdilution assay (MDA) and minimal inhibitory concentration (MIC) assay, bacteria in the mid-logarithmic phase were harvested and diluted to 4 × 10^5 CFU/mL with Dulbecco’s PBS. Bacteria were incubated with a series of 2-fold dilutions of indicated peptides or PBS for 2 h. The number of viable bacteria were enumerated by counting the colony-forming units (CFU). The MIC was defined as the lowest antimicrobial concentration which prevents the visible growth of bacteria.

A further test relates to B. subtilis ATCC 9372. It counts as cell-based, Bacillus subtilis. Here is the method: as §1
The test system of the next test is S. aureus 8325-4. Nature of the test: microdilution assay (MDA), viable counts (CFU). In kind it is cell-based, Staphylococcus aureus. Conditions: peptide 100 μM, 2 h, 4 × 10^5 CFU/mL in Dulbecco's PBS, CFU counting, N = 3. Here is the method: as §1
(Broth dilution looks for growth in wells or tubes with falling amounts of substance.)

For test [2], the system named is E. coli HB101. In words: microdilution assay (MDA), viable counts (CFU). It counts as cell-based, Escherichia coli. As to conditions: peptide 100 μM, 2 h, 4 × 10^5 CFU/mL in Dulbecco's PBS, CFU counting, N = 3. Here is the method: as §1

Consider `CC[C@H](C)[C@H](NC(=O)[C@H](CC(C)C)NC(=O)[C@H](C)NC(=O)[C@H](CCCNC(=N)N)NC(=O)[C@H](Cc1ccccc1)NC(=O)[C@H](CC(C)C)NC(=O)[C@H](CCCCN)NC(=O)[C@@H](N)CCCNC(=N)N)C(=O)N[C@@H](CCC(N)=O)C(=O)N[C@@H](C)C(=O)N[C@@H](CS)C(=O)N[C@@H](CC(=O)O)C(=O)N[C@@H](CCCNC(=N)N)C(=O)N[C@@H](CCCCN)C(=O)O` [MFF-p1] (H-RKLFRALIQACDRK-OH), for which the MIC in the test with E. coli HB101 [1] lay in the range of 6 to 12.5 µM. Further, the percent of killing entry in the test on B. subtilis ATCC 9372 (ATCC 9372, 2 h, 100 μM) is “around 90%”.
On to “LKDVFRDFIVVCQK [Z-p1, peptide that is a part of the Zizimin protein of Drosophila melanogaster]”, for which the “antimicrobial activity, inhibition of viable counts” value with S. aureus 8325-4 is “did not demonstrate antimicrobial activity”; in the test with E. coli HB101 [2], “did not demonstrate antimicrobial activity”; in the test on B. subtilis ATCC 9372 (peptide 100 μM, 2 h, 4 × 10^5 CFU/mL in Dulbecco's PBS, CFU counting, N = 3), “did not demonstrate antimicrobial activity”.
